According to patent publication US6939946B2, “Ring modified cyclic peptide analogs” (Eli Lilly and Company, priority 1998, dated 2005):
Like-named read-outs stand apart in the source and are kept apart here. Numbered stars: 1 amine (or outer) side, 2 acyl side, 3 side chain; on linkers, the order of the positions; unused ones are H or OH. Bridge positions count the residues as written; N and C are the ends. Square brackets hold non-standard residues; d marks the D form. Peptide text beside a SMILES is read from it. * marks the point of attachment. ξ: configuration not given here. pTerphenylCO(4''-OnC5H11) = CCCCCOc1ccc(-c2ccc(-c3ccc(C(=O)*)cc3)cc2)cc1; Orn(4R-OH,5R-OH) = O=C([C@H](C[C@@H](O)[C@@H](O)N[*:3])N[*:1])[*:2]; Pro(3S-OH,4S-Me) = C[C@H]1CN[C@H](C(=O)O)[C@H]1O; hTyr(3R-OH) = N[C@H](C(=O)O)[C@H](O)Cc1ccc(O)cc1; X1 = CN1CCC(NC[C@H](N[*:1])C(=O)[*:2])CC1; Hyp = O=C(O)[C@@H]1C[C@@H](O)CN1; Thr(3ξ) = CC(O)[C@H](N)C(=O)O; Dap = NC[C@H](N)C(=O)O

Tests used:
A. Fumigatus [1] = conditions: murine model of organ recovery, cited from earlier work
Pneumocystis carinii = conditions: cited from earlier work
C. parapsilosis = conditions: in vitro
Cryptococcus neoformans = conditions: in vitro
Histoplasma capsulatum = conditions: in vitro
C. albicans = conditions: in vitro
A. fumigatus [2] = conditions: in vitro
[3] = the molecule shown is the open-chain precursor, amide bond, H2/Pd-C (EtOH/AcOH), then Et3N, Et2O, 2 steps
[4] = the molecule shown is the open-chain precursor; other bond; 21-membered ring; SnCl2/NaHCO3; CH2Cl2; 2.0 mM

Row | Compound | Minimal Inhibitory Concentration MIC C. parapsilosis (C. parapsilosis) [µg/mL] | Minimal Inhibitory Concentration MIC Cryptococcus neoformans (Cryptococcus neoformans) [µg/mL] | Minimal Inhibitory Concentration MIC Histoplasma capsulatum (Histoplasma capsulatum) [µg/mL] | Minimal Inhibitory Concentration MIC C. albicans (C. albicans) [µg/mL] | Minimal Inhibitory Concentration MIC A. fumigatus (A. fumigatus [2]) [µg/mL] | other results
1 | CCCCCOc1ccc(-c2ccc(-c3ccc(C(=O)N[C@H]4C[C@@H](O)[C@@H](O)NC(=O)[C@@H]5[C@@H](O)[C@@H](C)CN5C(=O)[C@H](C(C)O)NC(=O)[C@H]([C@H](O)Cc5ccc(O)cc5)NC(=O)[C@@H]5C[C@@H](O)CN5C(=O)[C@H](C(C)O)NC4=O)cc3)cc2)cc1 (stereo partly drawn) [Compound C1, reference compound] ({pTerphenylCO(4''-OnC5H11)}-[Orn(4R-OH,5R-OH)][Thr(3ξ)][Hyp][hTyr(3R-OH)][Thr(3ξ)][Pro(3S-OH,4S-Me)]; lactam 1-C) | 0.156 | >20 | 0.01 | 0.01 | 0.02 | number of A. Fumigatus recovered from the kidneys (A. Fumigatus [1]; administered intraperitoneally): significantly reduced; effectiveness compared with amphotericin B on a mg/kg basis (A. Fumigatus [1]; both administered intraperitoneally): as effective as amphotericin B; reduction of the number of cysts in the lungs (Pneumocystis carinii; heavily infected, immunosuppressed rats, orally 5 mg/kg once daily for 4 days): more than 99%; reduction in all life cycle forms (Pneumocystis carinii; prophylactic oral administration of 1 mg/kg twice daily for 4 weeks): > 90%
2 | Boc-Cys(SO2; S-CH2CH2NH2)-Thr(TBS)-Hyp(TBS)-hTyr(3-OTBS,4'-OTBS)-Thr(TBS)-Pro(3-OTBS,4-Me)-N(Boc)2? |  |  |  |  |  | ring closure, isolated yield ([3]; 22-membered ring, 1.1 mM): 67%
3 | Boc-Orn-Val-Hyp(TBS)-hTyr(3-OTBS,4'-OTBS)-Thr(TBS)-Pro(3-OTBS,4-Me)-N(Boc)2? |  |  |  |  |  | ring closure, isolated yield ([3]; 21-membered ring, 2.1 mM): 43%
4 | Boc-Asp-semialdehyde(dimethyl acetal)-Thr(TBS)-Hyp(TBS)-hTyr(3-OTBS,4'-OTBS)-Thr(TBS)-Pro(3-OTBS,4-Me)-NHNH2? |  |  |  |  |  | ring closure, crude yield [4]: 100%
5 | CCCCCOc1ccc(-c2ccc(-c3ccc(C(=O)N[C@H]4CNC(=O)[C@H](CNC5CCN(C)CC5)NC(=O)[C@@H]5[C@@H](O)[C@@H](C)CN5C(=O)[C@H](C(C)O)NC(=O)[C@H]([C@H](O)Cc5ccc(O)cc5)NC(=O)[C@@H]5C[C@@H](O)CN5C(=O)[C@H](C(C)O)NC4=O)cc3)cc2)cc1 (stereo partly drawn) [Compound E8-9] ({pTerphenylCO(4''-OnC5H11)}-[Dap][Thr(3ξ)][Hyp][hTyr(3R-OH)][Thr(3ξ)][Pro(3S-OH,4S-Me)][X1]; lactam 1-C) | 5.0 | >20 | 0.625 | 0.156 | 5.0 | 
6 | CCCCCOc1ccc(-c2ccc(-c3ccc(C(=O)N[C@H]4CNC(=O)[C@H](CN)NC(=O)[C@@H]5[C@@H](O)[C@@H](C)CN5C(=O)[C@H](C(C)O)NC(=O)[C@H]([C@H](O)Cc5ccc(O)cc5)NC(=O)[C@@H]5C[C@@H](O)CN5C(=O)[C@H](C(C)O)NC4=O)cc3)cc2)cc1 (stereo partly drawn) [Compound E8-8] ({pTerphenylCO(4''-OnC5H11)}-[Dap][Thr(3ξ)][Hyp][hTyr(3R-OH)][Thr(3ξ)][Pro(3S-OH,4S-Me)][Dap]; lactam 1-C) | 0.625 | >20 | 0.312 | 0.078 | 5.0 | 
